The values that follow come from patent publication US11702426B2, “Macrocyclic deaza-purinones for the treatment of viral infections” (JANSSEN SCIENCES IRELAND UNLIMITED COMPANY, priority 2013, dated 2023).

Read-outs that look alike come from different tables or passages of the source.

The conditions of data set [1]: rcm bond.
Data set [2] relates to HEK293 NFκB-luc. As to the kind of experiment: Counterscreen: HEK293 cells transfected with NFκB-luc reporter construct alone. The class given is cell-based. As to conditions: lowest effective concentration; greater than the highest tested concentration. The protocol:
In parallel, a similar dilution series of compound was used (200 nL of compound in 100% DMSO) with 40 μL per well of cells transfected with NFκB-luc reporter construct alone (1.25×10^5 cells/mL). Six hours after incubation at 37° C., 5% CO2, the luciferase activity was determined by adding 15 μl of Steady Lite Plus substrate (Perkin Elmer) to each well and readout performed on a ViewLux ultraHTS microplate imager (Perkin Elmer). Counterscreen data is reported as LEC.
Background: The purpose of a counterscreen is to sort out artefacts and off-target activity.

The test system of data set [3] is interferon production in human PBMC. In words: Interferon production in human PBMC, read out on HEK-ISRE-luc reporter cells. In kind it is cell-based. To be noted: Homo sapiens, PBMC, 24 h, lowest effective concentration, PBMC incubated overnight with compound, supernatant transferred to HEK-ISRE-luc cells, read-out: PBMC HEK-ISRE-luc (LEC; μM). Here is the method: Activation of human TLR7 results in robust production of interferon by plasmacytoid dendritic cells present in human blood. The potential of compounds to induce interferon was evaluated by determination of interferon in the conditioned media from peripheral blood mononuclear cells (PBMC). The presence of interferon in the samples was determined, using an interferon reporter cell line stably expressing an interferon-stimulated responsive elements (ISRE)-luc reporter construct. The ISRE element with sequence TAGTTTCACTTTCCC (SEQ ID NO: 1) is highly responsive to the STAT1-STAT2-IRF9 transcription factor, which becomes activated upon binding of IFN-I to the IFN receptor. Briefly, PBMCs were prepared from buffy coats of at least two donors using a standard Ficoll centrifugation protocol. Isolated PBMCs were resuspended in RPMI medium supplemented with 10% human AB serum and 2×10^5 cells/well were dispensed into 384-well plates containing compounds (70 μL total volume). After overnight incubation of the PBMCs with the compounds, 10 μL of supernatant was transferred to 384-well plates containing 5×10^3 HEK-ISRE-luc cells/well in 30 μL (plated the day before). Following 24 hours of incubation, activation of the ISRE elements was measured by assaying luciferase activity using 40 μL/well Steady Lite Plus substrate (Perkin Elmer) and measured with ViewLux ultraHTS microplate imager (Perkin Elmer). The stimulating activity of each compound on the HEK-ISRE-luc cells was reported as LEC. The LEC in turn indicates the degree of ISRE activation on transfer of a defined amount of PBMC culture medium. Recombinant interferon alfa-2a (Roferon-A) was used as a standard control compound.

Data set [4] deals with T1, human TLR7 (Homo sapiens, UniProt Q9NYK1).
T1 construct: expressed in transfected cells; host or cells: HEK293
T1 sequence (Q9NYK1 27-1049): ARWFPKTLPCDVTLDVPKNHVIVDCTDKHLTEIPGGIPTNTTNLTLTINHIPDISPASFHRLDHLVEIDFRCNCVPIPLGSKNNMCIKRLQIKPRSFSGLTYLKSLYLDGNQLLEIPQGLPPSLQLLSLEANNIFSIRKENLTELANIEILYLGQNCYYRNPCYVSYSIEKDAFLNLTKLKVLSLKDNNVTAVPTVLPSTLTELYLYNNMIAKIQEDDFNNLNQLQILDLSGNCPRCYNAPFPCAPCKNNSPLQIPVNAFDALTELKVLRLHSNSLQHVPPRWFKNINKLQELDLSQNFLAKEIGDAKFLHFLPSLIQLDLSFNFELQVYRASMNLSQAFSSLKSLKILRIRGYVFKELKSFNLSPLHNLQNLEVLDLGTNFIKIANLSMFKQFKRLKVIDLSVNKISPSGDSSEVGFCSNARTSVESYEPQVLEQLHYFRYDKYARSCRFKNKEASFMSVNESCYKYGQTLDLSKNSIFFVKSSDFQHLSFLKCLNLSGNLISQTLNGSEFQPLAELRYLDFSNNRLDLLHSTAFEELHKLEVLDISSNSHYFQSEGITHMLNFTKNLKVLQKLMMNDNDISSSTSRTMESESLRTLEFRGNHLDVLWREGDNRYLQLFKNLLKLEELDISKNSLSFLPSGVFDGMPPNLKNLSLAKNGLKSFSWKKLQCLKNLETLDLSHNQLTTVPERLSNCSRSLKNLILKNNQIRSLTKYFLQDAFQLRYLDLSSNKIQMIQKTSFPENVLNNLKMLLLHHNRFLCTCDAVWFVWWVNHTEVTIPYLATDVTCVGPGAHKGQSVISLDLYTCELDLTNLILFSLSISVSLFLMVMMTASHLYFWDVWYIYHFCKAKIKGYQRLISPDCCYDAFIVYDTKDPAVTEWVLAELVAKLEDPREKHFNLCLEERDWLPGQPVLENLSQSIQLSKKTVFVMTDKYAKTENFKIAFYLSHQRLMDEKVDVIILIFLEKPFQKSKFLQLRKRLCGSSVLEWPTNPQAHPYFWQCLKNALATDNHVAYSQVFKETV
As to the kind of experiment: HEK293 TLR7-NFκB-luc cellular reporter assay. The class given is cell-based. As to conditions: lowest effective concentration; HEK293 transiently transfected with TLR7 and NFκB-luc; 6 hours incubation. Here is the method:
(§1) The ability of compounds to activate human TLR7 and TLR8 was assessed in a cellular reporter assay using HEK293 cells transiently transfected with a TLR7 or TLR8 expression vector and NFκB-luc reporter construct. Briefly, HEK293 cells were grown in culture medium (DMEM supplemented with 10% FCS and 2 mM Glutamine). For transfection of cells in 15 cm dishes, cells were detached with Trypsin-EDTA, transfected with a mix of CMV-TLR7 or TLR8 plasmid (1,700 ng), NFκB-luc plasmid (850 ng) and a transfection reagent and incubated 48 hours at 37° C. in a humidified 5% CO2 atmosphere. Transfected cells were then washed in PBS, detached with Trypsin-EDTA, and resuspended in medium to a density of 1.25×10^5 cells/mL. Forty microliters of cells were then dispensed into each well in 384-well plates, where 200 nL of compound in 100% DMSO was already present. Following 6 hours incubation at 37° C., 5% CO2, the luciferase activity was determined by adding 15 μl of Steady Lite Plus substrate (Perkin Elmer) to each well and readout performed on a ViewLux ultraHTS microplate imager (Perkin Elmer). Dose response curves were generated from measurements performed in quadruplicates. Lowest effective concentrations (LEC) values, defined as the concentration that induces an effect which is at least two fold above the standard deviation of the assay, were determined for each compound.
(In a reporter assay the amount or activity of a reporter protein is the signal.)

In data set [5] the target is T2, human TLR8 (Homo sapiens, UniProt Q9NR97).
T2 construct: expressed in transfected cells; host or cells: HEK293
T2 sequence (Q9NR97 27-1041): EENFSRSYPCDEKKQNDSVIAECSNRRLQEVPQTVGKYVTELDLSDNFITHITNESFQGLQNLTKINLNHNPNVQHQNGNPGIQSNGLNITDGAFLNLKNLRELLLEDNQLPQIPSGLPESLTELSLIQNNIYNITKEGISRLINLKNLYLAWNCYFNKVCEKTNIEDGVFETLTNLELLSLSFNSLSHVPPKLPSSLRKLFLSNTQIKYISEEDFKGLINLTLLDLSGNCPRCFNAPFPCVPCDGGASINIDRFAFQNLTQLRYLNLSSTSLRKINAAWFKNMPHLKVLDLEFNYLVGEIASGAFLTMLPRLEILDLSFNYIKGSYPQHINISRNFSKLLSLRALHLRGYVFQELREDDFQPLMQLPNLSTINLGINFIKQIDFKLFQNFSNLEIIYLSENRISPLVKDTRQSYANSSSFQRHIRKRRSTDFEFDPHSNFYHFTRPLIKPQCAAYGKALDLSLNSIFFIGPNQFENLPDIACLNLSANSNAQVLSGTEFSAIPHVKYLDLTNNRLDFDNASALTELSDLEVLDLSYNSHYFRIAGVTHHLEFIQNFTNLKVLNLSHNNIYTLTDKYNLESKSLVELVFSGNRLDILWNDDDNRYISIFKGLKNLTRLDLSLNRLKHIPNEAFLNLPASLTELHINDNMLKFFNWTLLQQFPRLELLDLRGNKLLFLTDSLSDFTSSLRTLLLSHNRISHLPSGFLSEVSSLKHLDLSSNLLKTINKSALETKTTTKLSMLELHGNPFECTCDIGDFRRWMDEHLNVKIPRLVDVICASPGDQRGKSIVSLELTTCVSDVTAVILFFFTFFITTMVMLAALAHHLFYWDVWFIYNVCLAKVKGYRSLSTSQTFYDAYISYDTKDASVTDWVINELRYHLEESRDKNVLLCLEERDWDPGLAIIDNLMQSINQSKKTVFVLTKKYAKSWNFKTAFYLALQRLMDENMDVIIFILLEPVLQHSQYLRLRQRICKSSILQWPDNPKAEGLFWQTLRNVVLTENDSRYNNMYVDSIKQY
As to the kind of experiment: HEK293 TLR8-NFκB-luc cellular reporter assay. In kind it is cell-based. To be noted: lowest effective concentration; greater than the highest tested concentration. Here is the method:
as §1

In data set [1] (from C=CCCOc1cc(N(Cc2cc(OC)cc(OCC=C)c2)C(=O)OCC)c([N+](=O)[O-])c(N)n1, Grubbs 2nd generation, CH2Cl2, 5.3 mM, 25.0 °C, 16.0 h), `CCOC(=O)N1Cc2cc(OC)cc(c2)OCC=CCCOc2cc1c([N+](=O)[O-])c(N)n2` gave a ring closure, yield of all isomers of 41%.
The molecule `CCOC(=O)N1Cc2cccc(c2)OCC=CCOc2cc1c([N+](=O)[O-])c(N)n2` showed a ring closure, yield of all isomers in data set [1] (from C=CCOc1cccc(CN(C(=O)OCC)c2cc(OCC=C)nc(N)c2[N+](=O)[O-])c1, Hoveyda-Grubbs 2nd generation (with chlorodicyclohexylborane), 1,2-dichloroethane, 3.47 mM, 120.0 °C, 37.0 h) of 19%.
Turning to `CCOC(=O)N1CCc2ccc(OC)c(c2)OCC=CCOc2cc1c([N+](=O)[O-])c(N)n2`, the ring closure, yield of all isomers in data set [1] (from C=CCOc1cc(N(CCc2ccc(OC)c(OCC=C)c2)C(=O)OCC)c([N+](=O)[O-])c(N)n1, Grubbs-Hoveyda catalyst 2nd generation (with chlorodicyclohexylborane), 1,2-dichloroethane, 4.24 mM, 120.0 °C, 23.0 h) was 25%.
In data set [1] (from C=CCCOc1cccc(CN(C(=O)OCC)c2cc(OCC=C)nc(N)c2[N+](=O)[O-])c1, Grubbs-Hoveyda catalyst 2nd generation (with chlorodicyclohexylborane), 1,2-dichloroethane, 4.18 mM, 120.0 °C, 32.0 h), `CCOC(=O)N1Cc2cccc(c2)OCCC=CCOc2cc1c([N+](=O)[O-])c(N)n2` registered a ring closure, yield of all isomers of 36%.
`CCOC(=O)N1Cc2cccc(c2)CC=CCCOc2cc1c([N+](=O)[O-])c(N)n2`: in data set [1] (from C=CCCOc1cc(N(Cc2cccc(CC=C)c2)C(=O)OCC)c([N+](=O)[O-])c(N)n1, Grubbs 2nd generation, CH2Cl2, 3.38 mM, 25.0 °C, 72.0 h), the ring closure, yield of all isomers worked out at 33%.
`CCOC(=O)N1Cc2ncccc2OCC=CCCOc2cc1c([N+](=O)[O-])c(N)n2` returned a ring closure, yield of all isomers in data set [1] (from C=CCCOc1cc(N(Cc2ncccc2OCC=C)C(=O)OCC)c([N+](=O)[O-])c(N)n1, Hoveyda-Grubbs 2nd generation (with chlorodicyclohexylborane), 1,2-dichloroethane, 3.6 mM, 120.0 °C, 3.0 h) of 22%.
In the case of `CCOC(=O)N1Cc2cccc(c2)OCC=CCCOc2cc1c([N+](=O)[O-])c(N)n2`, the ring closure, yield of all isomers in data set [1] (from C=CCCOc1cc(N(Cc2cccc(OCC=C)c2)C(=O)OCC)c([N+](=O)[O-])c(N)n1, Grubbs 2nd generation, CH2Cl2, 5.22 mM, 25.0 °C, 20.0 h) was 15%.
In data set [1] (from C=CCOc1cc(N(Cc2cccc(N(CC=C)C(=O)OC(C)(C)C)c2)C(=O)OCC)c([N+](=O)[O-])c(N)n1, Grubbs-Hoveyda catalyst 2nd generation (with chlorodicyclohexylborane), 1,2-dichloroethane, 4.1 mM, 120.0 °C, 16.0 h), `CCOC(=O)N1Cc2cccc(c2)N(C(=O)OC(C)(C)C)CC=CCOc2cc1c([N+](=O)[O-])c(N)n2` came in with a ring closure, yield of all isomers of 40%.
The molecule `CCOC(=O)N1Cc2cccc(c2)N(C(=O)OC(C)(C)C)CC=CCCOc2cc1c([N+](=O)[O-])c(N)n2` showed a ring closure, yield of all isomers in data set [1] (from C=CCCOc1cc(N(Cc2cccc(N(CC=C)C(=O)OC(C)(C)C)c2)C(=O)OCC)c([N+](=O)[O-])c(N)n1, Grubbs catalyst 2nd generation, dichloromethane, 6.93 mM, 25.0 °C, 24.0 h) of 67%.
For the molecule `Nc1nc2cc3c1nc(O)n3Cc1cccc(c1)CCCCCO2` [Compound 4], the “LEC on HEK293 NFκB-luc (counterscreen)” value in data set [2] is more than 10 µM. The minimal effective concentration in data set [3] worked out at 2.56 µM. Further, the “HEK293 TLR7-NFκB-luc (LEC; μM)” value in data set [4] was determined as 2.38 µM. The “LEC on HEK293 TLR8-NFκB-luc” value in data set [5] is more than 10 µM.
For `Nc1nc2cc3c1nc(O)n3Cc1cccc(c1)OC/C=C/CCO2` [Compound 10], the minimal effective concentration in data set [3] was found to be 0.25 µM. In addition, the “HEK293 TLR7-NFκB-luc (LEC; μM)” value in data set [4] was determined as 0.78 µM.
